Results published in ChEMBL document CHEMBL3988442, “University of Dundee, Small-Polar-MMV Screening Library” (2021).

The compounds below were run against ClpP1P2 (Mycobacterium tuberculosis (strain ATCC 25618 / H37Rv), UniProt P9WPC3+P9WPC5) (assay: in vitro assay to detect presence of AMC directly proportional to the activity of ClpP1P2. GHDDI collaboration.).
Format: functional

ClpP1P2, sequence (P9WPC5 whole entry): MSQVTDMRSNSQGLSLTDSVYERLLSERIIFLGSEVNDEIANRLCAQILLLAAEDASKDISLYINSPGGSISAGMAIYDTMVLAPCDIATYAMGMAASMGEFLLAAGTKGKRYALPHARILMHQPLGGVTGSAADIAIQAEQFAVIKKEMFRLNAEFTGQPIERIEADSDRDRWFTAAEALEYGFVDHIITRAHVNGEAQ
ClpP1P2, sequence (P9WPC3 whole entry): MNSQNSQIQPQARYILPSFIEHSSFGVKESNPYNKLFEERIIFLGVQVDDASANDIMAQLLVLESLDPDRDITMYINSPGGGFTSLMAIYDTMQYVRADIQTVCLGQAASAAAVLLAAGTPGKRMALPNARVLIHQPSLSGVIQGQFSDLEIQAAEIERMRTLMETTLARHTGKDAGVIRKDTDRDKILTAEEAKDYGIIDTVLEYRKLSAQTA

| SMILES | IC50 [µM] |
| --- | --- |
| CC1Cn2c(nc3c2c(=O)[nH]c(=O)n3C)O1 (centres undefined) | > 100 |
| Cn1ncc2c1CCCN(C(=O)C1CCCC1)C2 | > 100 |
| CN1CCN(c2nc(O)c3c(-c4ccccn4)ccnc3n2)CC1 | > 100 |
| CNC(=O)c1cc2c(nc1NCC(C)C)CCN(S(=O)(=O)C1CC1)CC2 | > 100 |
| CNC(=O)c1cc2c(nc1NC(C)C)CCN(C(=O)NC(C)C)CC2 | > 100 |
| CNC(=O)c1cc2c(nc1NCC1CC1)CCN(S(=O)(=O)C1CC1)CC2 | > 100 |
| CSc1ccc(CNc2n[nH]c(C)n2)cc1 | > 100 |
| CCOC(=O)Cn1nnnc1-c1ccccc1 | > 100 |
| COc1cccc(OCCNS(=O)(=O)Cc2ccccc2)c1 | > 100 |
| CC(Nc1ncnc2c1NC(=O)CN2)c1ccccn1 (centres undefined) | > 100 |
| Cc1nn(CCNc2ncnc3c2NC(=O)CN3)c(C)c1Cl | > 100 |
| Cc1cc(C)n(CCNc2ncnc3c2NC(=O)CN3)n1 | > 100 |
| O=C1CNc2ncnc(NCc3cccs3)c2N1 | > 100 |
| COc1ccccc1CNc1ncnc2c1NC(=O)CN2 | > 100 |
| Cc1cc(C)n(CCCNc2ncnc3c2NC(=O)CN3)n1 | > 100 |
| CCN(CC)c1nc(C)cc(C(=O)Nc2cccc(C(N)=O)c2)n1 | > 100 |
| O=C(c1cnn2c(-c3ccco3)ccnc12)N1CCCCCC1 | > 100 |
| CC1CCN(C(=O)c2cnn3c(-c4ccco4)ccnc23)CC1 | > 100 |
| O=C(NC1CCCC1)c1cnn2c(-c3ccco3)ccnc12 | > 100 |
| Cc1cccc(NC(=O)c2ccc(OCc3nnnn3C)cc2)n1 | > 100 |
| CNc1cncc(C2CCN(C(=O)c3cnco3)CC2)n1 | > 100 |
| Cc1cc(C)n(CCNCc2cc(-c3ccccc3)c[nH]c2=O)n1 | > 100 |
| Cc1c(-c2cccs2)nn2c(O)c3c(nc12)CN(C(=O)C1CC1)C3 | > 100 |
| O[C@@H]1C[C@H]2CN(Cc3ccccc3Cl)[C@H](Cc3ccccc3)CN2C1 | > 100 |
| CNC(=O)CNC(=O)c1ccc(-c2scnc2C)nc1 | > 100 |

| SMILES | IC50 [µM] |
| --- | --- |
| CNc1cncc(C2CCN(C(=O)c3coc(C)n3)CC2)n1 | > 100 |
| O[C@@H]1C[C@H]2CN(Cc3ccccc3)[C@H](Cc3ccccc3)CN2C1 | > 100 |
| Cc1ccc(-c2nc(C3CCN(C(=O)c4cnn(C)c4)CC3)no2)cn1 | > 100 |
| Nc1ncc(-c2ccc(Cl)cc2)c(C2CCCNC2)n1 (centres undefined) | > 100 |
| CNc1cncc(C2CCCN2C(=O)Cn2ccnc2C)n1 (centres undefined) | > 100 |
| CNc1cncc(C2CCCN2C(=O)CCn2ccnc2)n1 (centres undefined) | > 100 |
| CCN(CC)C(=O)CN1CCCC1c1nc(C)c2c(n1)N(C)C(=O)CC2 (centres undefined) | > 100 |
| c1cc(CN2CCC(c3ccnc4nccn34)C2)ccn1 (centres undefined) | > 100 |
| CNc1cncc(C2CCCN2C(=O)CCn2ccnc2C(C)C)n1 (centres undefined) | > 100 |
| CCc1nccn1CCC(=O)N1CCCC1c1cncc(NC)n1 (centres undefined) | > 100 |
| COCCNc1ncc(-c2cccc(OC)c2)c(-c2nccn2C)n1 | > 100 |
| CNc1cnc(CC2COCCN(Cc3ccccc3)C2)cn1 (centres undefined) | > 100 |
| CNc1cnc(CC2COCCN(Cc3cccc(C)n3)C2)cn1 (centres undefined) | > 100 |
| CNc1cnc(CC2COCCN(CCOc3ccccc3)C2)cn1 (centres undefined) | > 100 |
| O=S(=O)(c1ccccc1)N1CCOCC(Cc2cccnc2)C1 (centres undefined) | > 100 |
| Cn1cc(CN2CCCCC2c2ccc(-c3cccc(F)c3)nc2)cn1 (centres undefined) | > 100 |
| CC(C)=CCCC1(C)C=Cc2c(cc(C)n(CCC(=O)O)c2=O)O1 (centres undefined) | > 100 |
| O=C(CO)N1CCC(CCc2ccnc(Nc3cnccn3)c2)CC1 | > 100 |
| Cc1nc(C(=O)N2CCC(c3cc(CCO)n(C)n3)C2)co1 (centres undefined) | > 100 |
| CC(=O)N1CCC(c2cnc(NC3CCOCC3)cn2)CC1 | > 100 |
| O=C(Nc1cc(CCC2CCN(CCO)CC2)ccn1)c1ccccn1 | > 100 |
| CC(=O)N1CCC(CCc2ccnc(NC(=O)c3ccccn3)c2)CC1 | > 100 |
| Cn1cnc2ccc(NC(=O)CC3CCN(S(C)(=O)=O)CC3)cc21 | > 100 |
| CC(C)(C)c1ccc(OCC(=O)O)c(CN2C[C@H]3C[C@H](O)C[C@H]3C2)c1 | > 100 |
| O=C(c1cc(-c2cccnc2)[nH]n1)N1CCCC(c2cnccn2)C1 (centres undefined) | > 100 |

| SMILES | IC50 [µM] |
| --- | --- |
| O=C1NC2(CCN(CC(=O)N3CCOCC3)CC2)Nc2ccccc21 | > 100 |
| O=C(CN1CCC2(CC1)NC(=O)c1cc(Br)ccc1N2)NC1CC1 | > 100 |
| O=C1NC2(CCN(C(=O)CN3CCOCC3)CC2)Nc2ccc(Cl)cc21 | > 100 |
| O=C1NC2(CCN(CC(=O)N3CCOCC3)CC2)Nc2ccc(Br)cc21 | > 100 |
| COCC(=O)N1CCC(c2cc3nc(C)cc(C(F)(F)F)n3n2)CC1 | > 100 |
| COc1cc2c(cc1CCC(=O)O)CCC2 | > 100 |
| CCN(CC)S(=O)(=O)c1cc2c3c(c1)c(C)cc(=O)n3CC2 | > 100 |
| O=C(O)C1CN(c2cncc(Cc3ccccc3)n2)C1 | > 100 |
| CN(C)S(=O)(=O)N1CCC(c2n[nH]cc2-c2ccnc(N)c2)C1 (centres undefined) | > 100 |
| CC(C)N1CC[C@@](C)(O)[C@H](n2ccc(=O)[nH]c2=O)C1 | > 100 |
| O=C(O)C1CN(c2cncc(Cc3ccccc3F)n2)C1 | > 100 |
| Cc1ncc(CN2CCc3nc4cc(C(C)(C)C)nn4c(O)c3C2)n1C | > 100 |
| CC(=O)N1CCC(c2cncc(N3CCOCC3)n2)CC1 | > 100 |
| CCN1CCCC1CNCc1cc2cc3c(cc2[nH]c1=O)OCCO3 (centres undefined) | > 100 |
| CCN1CCCC1CNCc1cc2cc(OC)c(OC)cc2[nH]c1=O (centres undefined) | > 100 |
| CCN1CCCC1CNCc1cc2cc(OC)ccc2[nH]c1=O (centres undefined) | > 100 |
| CN1CCC(c2nccnc2Nc2cnccn2)CC1 | > 100 |
| O=C1CN(Cc2ccc3ccccc3n2)CCN1C1CCCC1 | > 100 |
| CNC(=O)c1cnn2c(C3CCCN3)ccnc12 (centres undefined) | > 100 |
| O=C(Cn1cccc2cc(-c3ccc(F)cc3)nc1-2)N1CCC(O)CC1 | > 100 |
| COc1ccc(-c2cc3cccn(CC(=O)N4CCOCC4)c-3n2)cc1 | > 100 |
| Oc1ccc(C2Nc3ccccc3C3=NCCCN32)cc1 (centres undefined) | > 100 |
| c1ccc(O[C@H]2C[C@@H]3CN(Cc4cnccn4)C[C@@H]3C2)cc1 | > 100 |
| COc1ccc(C2Nc3cc(Cl)ccc3C3=NCCN32)cc1CO (centres undefined) | > 100 |
| COCCNCc1cc2c(C)cc(C)cc2n2c(=O)n(C)nc12 | > 100 |

| SMILES | IC50 [µM] |
| --- | --- |
| CCOCCCNCc1cc2c(C)cc(C)cc2n2c(=O)n(C)nc12 | > 100 |
| NC(=O)CN1CCC(c2cc(C(F)(F)F)n3ccnc3n2)CC1 | > 100 |
| CC(C)N1CCC(c2cc(C(F)(F)F)n3ccnc3n2)CC1 | > 100 |
| COc1ccc(C2Nc3ccccc3C3=NCCCN32)cc1OC (centres undefined) | > 100 |
| COc1ccccc1-c1nc(C(=O)N(C)C)n2ccncc12 | > 100 |
| COc1ccccc1-c1nc(C(=O)N2CCOCC2)n2ccncc12 | > 100 |
| O=C(NCc1cccnc1)c1ccc2nccn2c1 | > 100 |
| CN(C)C(=O)c1nc(-c2ccc(S(C)(=O)=O)cc2)c2ccccn12 | > 100 |
| CN(C)c1cc(C(F)(F)F)cc(-c2ccc(C(=O)O)cc2)n1 | > 100 |
| N#Cc1cc2cc(Cl)cnc2nc1O | > 100 |
| CC1CCN(C(=O)C2CCN(c3ccc(Cl)cc3C#N)CC2)CC1 | > 100 |
| Cc1ccc2nc(CNc3ccccc3C(=O)NC3CC3)cn2c1 | > 100 |
| N#Cc1ccc(F)c(CN2CCNC(=O)C2c2cccs2)c1 (centres undefined) | > 100 |
| N#Cc1cccc(OCCN2CCNC(=O)C2c2cccs2)c1 (centres undefined) | > 100 |
| O=C1CCCN1Cc1nnc2n1CCCN(C(=O)c1ccco1)C2 | > 100 |
| c1cc2nc(C3CCNCC3)nn2cc1NC1CCC1 | > 100 |
| CC(C)n1c2ccccc2c2c1cc(C(=O)N(C)C)n2C(=O)N(C)C | > 100 |
| Cc1nc(-c2nc(C(=O)N(C)C)c3ccccn23)cn1C(C)C | > 100 |
| Cc1nc(-c2nc(C(=O)NC3CC3)c3ccccn23)cn1C(C)C | > 100 |
| CC(C)n1cnc(-c2nc(C(=O)NC3CC3)c3ccccn23)c1 | > 100 |
| COCCNC(=O)c1nc(-c2cn(C)cn2)n2ccccc12 | > 100 |
| Cn1cnc(-c2nc(C(=O)NCCN3CCCC3)c3ccccn23)c1 | > 100 |
| Cn1ccc(-c2cc(C(=O)N3CCCCC3)c3ccccn23)n1 | > 100 |
| Cn1ccc(-c2cc(C(=O)N3CCC(C(N)=O)CC3)c3ccccn23)n1 | > 100 |
| Cc1nc(NCC2CC2)nc2c1COCC21CCN(C(=O)C(C)(C)C)C1 (centres undefined) | > 100 |

| SMILES | IC50 [µM] |
| --- | --- |
| O=C(NCC1CC1)c1c2c(N3CCCC3)ncnc2n2ccccc12 | > 100 |
| CCNC(=O)c1c2c(N3CCN(C)CC3)ncnc2n2ccccc12 | > 100 |
| O=C(NC1CCC1)c1c2c(N3CCCC3)ncnc2n2ccccc12 | > 100 |
| O=C(c1c2c(N3CCCC3)ncnc2n2ccccc12)N1CCCC1 | > 100 |
| CN1CCN(c2ncnc3c2c(C(=O)NC2CC2)c2ccccn23)CC1 | > 100 |
| c1cnc(Nc2cncc(C3CCCN3)n2)cn1 (centres undefined) | > 100 |
| COc1ccc(-c2cnc(N(C)C)nc2C2CNCCO2)cc1 (centres undefined) | > 100 |
| Cc1sc2c(C3CCCNC3)nc(Nc3cccc(F)c3)n2c1C (centres undefined) | > 100 |
| COc1ccccc1Cc1cncc(N2CC(C(=O)O)C2)n1 | > 100 |
| Cc1cnc(CCNc2cccc(CC3CCCNC3)n2)s1 (centres undefined) | > 100 |
| CN(C)Cc1cc(C2CCCCN2S(=O)(=O)Cc2ccccc2)nn1C (centres undefined) | > 100 |
| CN(C)c1ncc(C2Nc3ccccc3C3=NCCCN32)cn1 (centres undefined) | > 100 |
| CN(C)c1ncc(C2Nc3cc(Cl)ccc3C3=NCCCN32)cn1 (centres undefined) | > 100 |
| CCc1nccn1-c1cccc(C2CCCN2)n1 (centres undefined) | > 100 |
| c1cncc(CN2CCC(c3ccc4c(c3)OCO4)CC2)c1 | > 100 |
| CNC(=O)c1cc2c(nc1NCC1CC1)CCN(c1ccncn1)CC2 | > 100 |
| CN(C)C1CCN(C(=O)c2cc(-c3ccn(C)n3)n3ccccc23)CC1 | > 100 |
| c1ccc(CN2CCc3ncnc(-c4ccoc4)c3CC2)nc1 | > 100 |
| Cn1cc(-c2ncc3c(c2C(=O)O)CCN(Cc2ccccn2)C3)cn1 | > 100 |
| O=C(NCc1ccccn1)[C@H]1COC[C@H]2CN(C3CCCC3)C[C@H]21 | > 100 |
| CCOCC1CN(c2ccncn2)Cc2cnn(CC)c21 (centres undefined) | > 100 |
| Cc1nc(CN2CCC(O)(c3ccccc3F)CC2)c2ccccn12 | > 100 |
| Cc1c[nH]nc1C1CCCN1Cc1nccn1C (centres undefined) | > 100 |
| Cc1c[nH]nc1C1CCCN1Cc1ncc[nH]1 (centres undefined) | > 100 |
